The melting point is the temperature, or range, at which the solid turns liquid.

SMILES strings stand for the structures.

In the case of `CCN(Cc1ccccc1)c1ncnc2[nH]ccc12` [Example 2, Benzyl-ethyl-(7H-pyrrolo[2,3-d]pyrimidin-4-yl)-amine], the melting point fell in the range of 170 to 172 °C. To `C=CCN(c1ncnc2[nH]ccc12)C1CCCC1` [Example 6, Allyl-cyclopentyl-(7H-pyrrolo[2,3-d]pyrimidin-4-yl)-amine] belongs 173 to 175 °C; to `CCN(c1ncnc2[nH]ccc12)C1CCCCCC1` [Example 14, Cycloheptyl-ethyl-(7H-pyrrolo[2,3-d]pyrimidin-4-yl)-amine], 168 to 169 °C; to `CCN(c1ncnc2[nH]ccc12)C1CCCCCCC1` [Example 15, Cyclooctyl-ethyl-(7H-pyrrolo[2,3-d]pyrimidin-4-yl)-amine], 155 to 156 °C. To `CCC(C)N(C)c1ncnc2[nH]ccc12` (centres unmarked) [Example 26, sec-Butyl-methyl-(7H-pyrrolo[2,3-d]pyrimidin-4-yl)-amine] belongs 146 to 148 °C. To `Cc1cc2c(N(C)C3CCCCC3)ncnc2[nH]1` [Example 87, Cyclohexyl-methyl-(6-methyl-7H-pyrrolo[2,3-d]pyrimidin-4-yl)-amine] belongs 221 °C (dec.); to `c1nc(SC2CCCCC2)c2cc[nH]c2n1` [Example 90, 4-Cyclohexylsulfanyl-7H-pyrrolo[2,3-d]pyrimidine], 162 to 163 °C; to `Clc1c[nH]c2ncnc(N3CCCCC3)c12` [Example 91, 5-Chloro-4-piperidin-1-yl-7H-pyrrolo[2,3-d]pyrimidine], 170 to 172 °C. The compound `CN(c1ncnc2[nH]cc(Cl)c12)C1CCCCCC1` [Example 93, (5-Chloro-7H-pyrrolo[2,3-d]pyrimidin-4-yl)-cycloheptyl-methyl-amine] had a melting point of 152 to 153 °C. To `CN(c1ncnc2[nH]cc(Cl)c12)C1CCCCCCC1` [Example 94, (5-Chloro-7H-pyrrolo[2,3-d]pyrimidin-4-yl)-cyclooctyl-methyl-amine] belongs 151 to 153 °C; to `CN(c1ncnc2[nH]cc(-c3ccccc3)c12)C1CCCCC1` [Example 96, Cyclohexyl-methyl-(5-phenyl-7H-pyrrolo[2,3-d]pyrimidin-4-yl)amine], 200 °C; to `CN(c1ncnc2[nH]cc(-c3ccc(F)cc3)c12)C1CCCCC1` [Example 97, Cyclohexyl-[5-(4-fluoro-Phenyl)-7H-pyrrolo[2,3-d]pyrimidin-4-yl]-methyl-amine], 220 °C. `N#Cc1c[nH]c2ncnc(N3CCCCC3)c12` [Example 100, 4-Piperidin-1-yl-7H-pyrrolo[2,3-d]pyrimidine-5-carbonitrile]: the melting point was in the range of 209 to 211 °C.

As for `C#Cc1c[nH]c2ncnc(N3CCCCC3)c12` [Example 101, 5-Ethynyl-4-piperidin-1-yl-7H-pyrrolo[2,3-d]pyrimidine], the melting point lay within 179 to 181 °C.

For the origin of these results see patent US7687507B2, “Pyrrolo[2,3-d]pyrimidine compounds” (Pfizer Inc., priority 1998, dated 2010).
